# Assay results published in patent US20250034135A1, “ANTI-APOPTOTIC PROTEIN BCL-2 INHIBITOR, PHARMACEUTICAL COMPOSITION AND USES THEREOF” (HANGZHOU HEALZEN THERAPEUTICS CO., LTD., priority 2021, published 2025).
# Target: BCL2 (Homo sapiens (Human), UniProt P10415)
# Test: Molecular level activity test of anti-apoptotic protein BCL2 (HTRF, binding to Bim peptide)
# Conditions: HTRF, binding of BCL2 to Bim peptide; read-out: BCL2 nM (inhibitory activity, IC50)
# Summary of the method: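 Step one: compound, supplied in 2% DMSO, is mixed with His-tagged BCL2 and biotinylated Bim peptide and reacted for 1 h. Step two: anti-His and streptavidin-XL665 reagents in detection buffer are added. Step three: after a 4 h room-temperature incubation, time-resolved fluorescence is measured.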
# Sequence of BCL2 (P10415 whole entry): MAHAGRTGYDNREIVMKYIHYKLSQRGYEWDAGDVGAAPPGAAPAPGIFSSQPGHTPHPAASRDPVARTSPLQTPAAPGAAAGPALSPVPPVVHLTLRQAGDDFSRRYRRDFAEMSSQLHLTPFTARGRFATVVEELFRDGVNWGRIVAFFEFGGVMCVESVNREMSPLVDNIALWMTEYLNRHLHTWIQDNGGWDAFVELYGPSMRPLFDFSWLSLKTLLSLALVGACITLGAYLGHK
row,IC50 [nM],SMILES
1,< 10,"CC(C)c1ccccc1[C@@H]1CCCN1C1CC2(CCN(c3cc(Oc4cnc5[nH]ccc5c4)c(C(=O)NS(=O)(=O)c4cc([N+](=O)[O-])c(NCC5(F)CCOCC5)c5c4CCO5)cc3F)CC2)C1 [compound 105, (S)-2-((1H-pyrrolo[2,3-b]pyrid-5-yl)oxy)-5-fluoro-N-((7-(((4-fluorotetrahydro-2H-pyran-4-yl)methyl)amino)-6-nitro-2,3-dihydrobenzofuran-4-yl)sulfonyl)-4-(2-(2-(2-isopropylphenyl)pyrrolidin-1-yl)-7-azaspiro[3.5]non-7-yl)benzamide]"
2,< 10,"CC(C)c1ccccc1[C@@H]1CCCN1C1CC2(CCN(c3cc(Oc4cnc5[nH]ccc5c4)c(C(=O)NS(=O)(=O)c4cc([N+](=O)[O-])c(NCC5CCC(N(C)C)CC5)c5[nH]cnc45)cn3)CC2)C1 (stereo partly drawn) [compound 033, 4-((1H-pyrrolo[2,3-b]pyrid-5-yl)oxy)-N-((7-((((1S,4S)-4-(dimethylamino)cyclohexyl)methyl)amino)-6-nitro-1H-benzo[d]imidazol-4-yl)sulfonyl)-6-(2-((S)-2-(2-isopropylphenyl)pyrrolidin-1-yl)-7-azaspiro[3.5]non-7-yl) nicotinamide]"
3,< 10,"CC(C)c1ccccc1[C@@H]1CN(Cc2ccc(F)cc2F)CCN1C1CC2(CCN(c3ccc(C(=O)NS(=O)(=O)c4cc([N+](=O)[O-])c(NCC5(F)CCOCC5)c5c4OCO5)c(Oc4cnc5[nH]ccc5c4)c3)CC2)C1 [compound 169, (R)-2-((1H-pyrrolo[2,3-b]pyrid-5-yl)oxy)-4-(2-(4-(2,4-difluorobenzyl)-2-(2-isopropylphenyl)piperazin-1-yl)-7-azaspiro[3.5]non-7-yl)-N-((7-(((4-fluorotetrahydro-2H-pyran-4-yl)methyl)amino)-6-nitrobenzo[d][1,3]dioxocyclopent-4-yl)sulfonyl)benzamide]"
4,< 10,"CC(C)c1ccccc1[C@@H]1CN(Cc2ccc(C3CC3)cc2)CCN1C1CC2(CCN(c3ccc(C(=O)NS(=O)(=O)c4cc([N+](=O)[O-])c(NC[C@H]5CC[C@](C)(O)CC5)c5c4OCO5)c(Oc4cnc5[nH]ccc5c4)c3)CC2)C1 [compound 178, 2-((1H-pyrrolo[2,3-b]pyrid-5-yl)oxy)-4-(2-((R)-4-(4-cyclopropylbenzyl)-2-(2-isopropylphenyl)piperazin-1-yl)-7-azaspiro[3.5]non-7-yl)-N-((7-((((1r, 4r)-4-hydroxy-4-methylcyclohexyl)methyl)amino)-6-nitrobenzo[d][1,3]dioxocyclopent-4-yl)sulfonyl)benzamide]"
5,< 10,"COc1ccc(CN2CCN(C3CC4(CCN(c5cc(Oc6cnc7[nH]ccc7c6)c(C(=O)NS(=O)(=O)c6cc([N+](=O)[O-])c(NC[C@H]7CC[C@](C)(O)CC7)c7occc67)cc5F)CC4)C3)[C@H](c3ccccc3C(C)C)C2)cc1 [compound 115, 2-((1H-pyrrolo[2,3-b]pyrid-5-yl)oxy)-5-fluoro-N-((7-((((1r, 4r)-4-hydroxy-4-methylcyclohexyl)methyl)amino)-6-nitrobenzofuran-4-yl)sulfonyl)-4-(2-((R)-2-(2-isopropylphenyl)-4-(4-methoxybenzyl)piperazin-1-yl)-7-azaspiro[3.5]non-7-yl)benzamide]"
6,< 10,COc1ccc(CN2CCN(C3CC4(CCN(c5cc(Oc6cnc7[nH]ccc7c6)c(C(=O)NS(=O)(=O)c6cc([N+](=O)[O-])c(NCC7(F)CCOCC7)c7scnc67)cc5F)CC4)C3)[C@H](c3ccccc3C(C)C)C2)cc1 [compound 108]
7,< 10,"CC(C)c1ccccc1[C@@H]1CCCN1C1CC2(CCN(c3cc(N4CCOc5nc6[nH]ccc6cc54)c(C(=O)NS(=O)(=O)c4cc([N+](=O)[O-])c(NC[C@H]5CC[C@](C)(O)CC5)c5[nH]cnc45)cn3)CC2)C1 [compound 081, 4-(2,3-dihydropyrrolo[3′,2′:5,6]pyridino[2,3-b][1,4]oxazin-1 (6H)-yl)-N-((7-((((1r,4r)-4-hydroxy-4-methylcyclohexyl)methyl)amino)-6-nitro-1H-benzo[d]imidazol-4-yl)sulfonyl)-6-(2-((S)-2-(2-isopropylphenyl)pyrrolidin-1-yl)-7-azaspiro[3.5]non-7-yl) nicotinamide]"
8,< 10,COc1ccc(CN2CCN(C3CC4(C3)CN(c3cc(Oc5cnc6[nH]ccc6c5)c(C(=O)NS(=O)(=O)c5ccc(NCC6(F)CCN(C7COC7)CC6)c([N+](=O)[O-])c5)cn3)C4)C(c3ccccc3C(C)C)C2)cc1 (stereo not shown) [compound 054]
9,< 10,"CC(C)c1ccccc1[C@@H]1CCCN1C1CC2(CCN(c3ccc(C(=O)NS(=O)(=O)c4cc([N+](=O)[O-])c(NC[C@H]5CC[C@](C)(O)CC5)c5[nH]cnc45)c(N4CCCOc5nc6[nH]ccc6cc54)c3)CC2)C1 [compound 085, 2-(3,4-dihydro-2H-pyrrolo[3′,2′:5,6]pyridino[2,3-b][1,4]oxazacyclohept-1 (7H)-yl)-N-((7-((((1r,4r)-4-hydroxy-4-methylcyclohexyl)methyl)amino)-6-nitro-1H-benzo[d]imidazol-4-yl)sulfonyl)-4-(2-((S)-2-(2-isopropylphenyl)pyrrolidin-1-yl)-7-azaspiro[3.5]non-7-yl)benzamide]"
10,< 10,"CC(C)c1ccccc1[C@@H]1CCCN1C1CC2(CCN(c3cc(N4CCOc5nc6[nH]ccc6cc54)c(C(=O)NS(=O)(=O)c4cc([N+](=O)[O-])c(NCC5(F)CCN(C(C)C)CC5)c5[nH]cnc45)cc3F)CC2)C1 [compound 084, (S)-2-(2,3-dihydropyrrolo[3′,2′:5,6]pyridino[2,3-b][1,4]oxazin-1 (6H)-yl)-5-fluoro-N-((7-(((4-fluoro-1-isopropylpiperid-4-yl)methyl)amino)-6-nitro-1H-benzo[d]imidazol-4-yl)sulfonyl)-4-(2-(2-(2-isopropylphenyl)pyrrolidin-1-yl)-7-azaspiro[3.5]non-7-yl)benzamide]"
11,< 10,"COc1ccc(CN2CCN(C3CC4(CCN(c5cc(Oc6cnc7[nH]ccc7c6)c(C(=O)NS(=O)(=O)c6cc([N+](=O)[O-])c(NCC7(F)CCOCC7)c7c6OCC7)cc5F)CC4)C3)[C@H](c3ccccc3C(C)C)C2)cc1 [compound 142, (R)-2-((1H-pyrrolo[2,3-b]pyrid-5-yl)oxy)-5-fluoro-N-((4-(((4-fluorotetrahydro-2H-pyran-4-yl)methyl)amino)-5-nitro-2,3-dihydrobenzofuran-7-yl)sulfonyl)-4-(2-(2-(2-isopropylphenyl)-4-(4-methoxybenzyl)piperazin-1-yl)-7-azaspiro[3.5]non-7-yl)benzamide]"
12,< 10,"COc1ccc(CN2CCN(C3CC4(CCN(c5ccc(C(=O)NS(=O)(=O)c6cc([N+](=O)[O-])c(NCC7(F)CCOCC7)c7c6OCO7)c(Oc6cnc7[nH]ccc7c6)c5)CC4)C3)[C@H](c3ccccc3C(C)C)C2)cn1 [compound 166, (R)-2-((1H-pyrrolo[2,3-b]pyrid-5-yl)oxy)-N-((7-(((4-fluorotetrahydro-2H-pyran-4-yl)methyl)amino)-6-nitrobenzo[d][1,3]dioxocyclopent-4-yl)sulfonyl)-4-(2-(2-(2-isopropylphenyl)-4-((6-methoxypyrid-3-yl)methyl)piperazin-1-yl)-7-azaspiro[3.5]non-7-yl)benzamide]"
13,< 10,"COc1ccc(CN2CCN(C3CC4(CCN(c5ccc(C(=O)NS(=O)(=O)c6cc([N+](=O)[O-])c(NCC7(F)CCOCC7)c7c6OC(F)(F)O7)c(Oc6cnc7[nH]ccc7c6)c5)CC4)C3)[C@H](c3ccccc3C(C)C)C2)cc1 [compound 164, (R)-2-((1H-pyrrolo[2,3-b]pyrid-5-yl)oxy)-N-((2,2-difluoro-7-(((4-fluorotetrahydro-2H-pyran-4-yl)methyl)amino)-6-nitrobenzo[d][1,3]dioxocyclopent-4-yl)sulfonyl)-4-(2-(2-(2-isopropylphenyl)-4-(4-methoxybenzyl)piperazin-1-yl)-7-azaspiro[3.5]non-7-yl)benzamide]"
14,< 10,"COc1ccc(CN2CCN(C3CC4(CCN(c5cc(Oc6cnc7[nH]ccc7c6)c(C(=O)NS(=O)(=O)c6cc([N+](=O)[O-])c(NCC7(F)CCOCC7)c7occc67)cc5F)CC4)C3)[C@H](c3ccccc3C(C)C)C2)cc1 [compound 109, (R)-2-((1H-pyrrolo[2,3-b]pyrid-5-yl)oxy)-5-fluoro-N-((7-(((4-fluorotetrahydro-2H-pyran-4-yl)methyl)amino)-6-nitrobenzofuran-4-yl)sulfonyl)-4-(2-(2-(2-isopropylphenyl)-4-(4-methoxybenzyl)piperazin-1-yl)-7-azaspiro[3.5]non-7-yl)benzamide]"
15,< 10,"CC(C)c1ccccc1[C@@H]1CN(Cc2cccc3c2OCCO3)CCN1C1CC2(CCN(c3cc(Oc4cnc5[nH]ccc5c4)c(C(=O)NS(=O)(=O)c4ccc(NCC5(F)CCOCC5)c([N+](=O)[O-])c4)cc3F)CC2)C1 [compound 208, (R)-2-((1H-pyrrolo[2,3-b]pyrid-5-yl)oxy)-4-(2-(4-((2,3-dihydrobenzo[b][1,4]dioxan-5-yl)methyl)-2-(2-isopropylphenyl)piperazin-1-yl)-7-azaspiro[3.5]non-7-yl)-5-fluoro-N-((4-(((4-fluorotetrahydro-2H-pyran-4-yl)methyl)amino)-3-nitrophenyl)sulfonyl)benzamide]"
16,< 10,"COc1ccc(CN2CCN(C3CC4(C3)CN(c3cc(Oc5cnc6[nH]ccc6c5)c(C(=O)NS(=O)(=O)c5cc([N+](=O)[O-])c(NC[C@H]6CC[C@](C)(O)CC6)c6[nH]cnc56)cn3)C4)C(c3ccccc3C(C)C)C2)cc1 (stereo partly shown) [compound 068, 4-((1H-pyrrolo[2,3-b]pyrid-5-yl)oxy)-N-((7-((((1r,4r)-4-hydroxy-4-methylcyclohexyl)methyl)amino)-6-nitro-1H-benzo[d]imidazol-4-yl)sulfonyl)-6-(6-(2-(2-isopropylphenyl)-4-(4-methoxybenzyl)piperazin-1-yl)-2-azaspiro[3.3]hept-2-yl) nicotinamide]"
